The source of these data is patent US12534477B2, “Compound having KHK inhibitory effect” (HANGZHOU ZHONGMEIHUADONG PHARMACEUTICAL CO., LTD., priority 2019, dated 2026).

In one data set the target is CYP3A4 (Homo sapiens (Human), UniProt P08684). The data set is described as follows: Inhibitory activity on human liver microsomal cytochrome P450 isozymes. Conditions: human liver microsomes. In kind it is in vitro ADME. As for the experimental part:
(§1) The inhibitory effect of test compounds on the activity of human hepatic microsomal cytochrome P450 isozymes (CYP1A2, CYP2C9, CYP2C19, CYP2D6 and CYP3A4) was determined.
(§2) First, the test compound (10 mM) was diluted in gradient to prepare working solutions (100×final concentration) with working solution concentrations: 5, 1.5, 0.5, 0.15, 0.05, 0.015, 0.005 mM, respectively, and at the same time, working solutions of each positive inhibitor of P450 isozymes (CYP1A2, CYP2C9, CYP2C19, CYP2D6 and CYP3A4) and its specific substrate mixture were prepared. Human liver microsomes frozen in a −80° C. refrigerator were thawed on ice, and diluted with PB (phosphate buffer) after all the human liver microsomes were dissolved, to prepare a working solution at a certain concentration (0.253 mg/mL). 20 μl substrate mixture was added to the reaction plate (20 μL PB was added to the Blank wells) while 158 μL human liver microsome working solution was added to the reaction plate which was placed on ice for later use. At this time, 2 μL of each concentration of the test compound (N=1) and the specific inhibitor (N=2) were added to the corresponding wells, and the corresponding organic solvents were added to the groups without inhibitors (the test compound or the positive inhibitor) as control samples (1:1 DMSO:MeOH for the test compound control sample, and 1:9 DMSO:MeOH for the positive control sample). After pre-incubation in 37° C. water bath for 10 min, 20 μL coenzyme factor (NADPH) solution was added to the reaction plate, and incubated in 37° C. water bath for 10 min. 400 μL cold acetonitrile solution (200 ng/mL Tolbutamide and Labetalol as the internal standard) was added to stop the reaction. The reaction plate was placed on a shaker and shaken for 10 min. The mixture was centrifuged at 4,000 rpm for 20 min, and 200 μl the supernatant was added to 100 μL water for sample dilution. Finally, the plate was sealed, shaken, mixed well and detected by LC/MS/MS.
(Liver microsomes are a subcellular fraction often used to study metabolism.)

For the next data set, the target named is CYP2C19 (Homo sapiens (Human), UniProt P33261). The data set is described as above. Type of data set: in vitro ADME. Conditions: human liver microsomes. As for the experimental part: as §1, §2
For another data set, the target named is CYP2C9 (Homo sapiens (Human), UniProt P11712). The description is as above. In kind it is in vitro ADME. Conditions: human liver microsomes. As for the experimental part: as §1, §2
The next data set has as its target CYP2D6 (Homo sapiens (Human), UniProt P10635). The data set is described as above. Type of data set: in vitro ADME. To be noted: human liver microsomes. As for the experimental part:
as §1, §2

A further data set deals with CYP1A2 (Homo sapiens (Human), UniProt P05177). In kind it is in vitro ADME. To be noted: human, microsomes, 10 min. As for the experimental part: as §1, §2
Data set [1] has as its target Recombinant Human Ketohexokinase (KHK) (Homo sapiens (Human), UniProt P50053). The data set is described as follows: Ketohexokinase assay (KHK assay), ADP-Glo. In kind it is biochemical. (In general: ADP-Glo turns the ADP formed in a reaction into a luminescent signal.)
Data set [2] is described as follows: Pharmacokinetic evaluation in SD rats. In kind it is in vivo. To be noted: rat, plasma. As for the experimental part:
In vivo pharmacokinetics of compounds in SD rats were tested.
Pharmacokinetic profiles in rodents following intravenous and oral administration of the compounds were tested by standard protocols. In the experiment, candidate compounds were formulated as clear solutions or homogeneous suspensions, and were administered to rats by single intravenous injection (IV, 1 mpk) and oral administration (PO, 3 mpk). The vehicle for intravenous injection was a certain proportion of PEG400 in water, and the vehicle for oral administration was a certain proportion of methylcellulose and Tween 80 in water. Whole blood was collected, and plasma was prepared. Drug concentration was analyzed by LC-MS/MS, and pharmacokinetic parameters were calculated by Phoenix WinNonlin software.

Sequence of CYP2D6 (P10635 whole entry): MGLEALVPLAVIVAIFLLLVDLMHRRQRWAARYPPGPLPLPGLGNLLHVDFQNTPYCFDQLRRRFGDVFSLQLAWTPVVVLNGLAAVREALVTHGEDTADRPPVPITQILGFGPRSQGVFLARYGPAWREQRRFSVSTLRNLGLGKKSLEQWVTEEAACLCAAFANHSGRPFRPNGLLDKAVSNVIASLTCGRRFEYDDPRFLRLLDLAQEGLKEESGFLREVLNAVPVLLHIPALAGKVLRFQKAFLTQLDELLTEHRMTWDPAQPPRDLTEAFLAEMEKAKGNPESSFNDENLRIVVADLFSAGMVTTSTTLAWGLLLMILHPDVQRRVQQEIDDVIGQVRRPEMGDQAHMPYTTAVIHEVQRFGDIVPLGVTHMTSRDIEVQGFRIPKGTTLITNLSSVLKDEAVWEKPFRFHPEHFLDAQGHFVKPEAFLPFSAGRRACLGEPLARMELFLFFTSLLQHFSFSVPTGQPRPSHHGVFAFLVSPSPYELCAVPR
Sequence of CYP3A4 (P08684 whole entry): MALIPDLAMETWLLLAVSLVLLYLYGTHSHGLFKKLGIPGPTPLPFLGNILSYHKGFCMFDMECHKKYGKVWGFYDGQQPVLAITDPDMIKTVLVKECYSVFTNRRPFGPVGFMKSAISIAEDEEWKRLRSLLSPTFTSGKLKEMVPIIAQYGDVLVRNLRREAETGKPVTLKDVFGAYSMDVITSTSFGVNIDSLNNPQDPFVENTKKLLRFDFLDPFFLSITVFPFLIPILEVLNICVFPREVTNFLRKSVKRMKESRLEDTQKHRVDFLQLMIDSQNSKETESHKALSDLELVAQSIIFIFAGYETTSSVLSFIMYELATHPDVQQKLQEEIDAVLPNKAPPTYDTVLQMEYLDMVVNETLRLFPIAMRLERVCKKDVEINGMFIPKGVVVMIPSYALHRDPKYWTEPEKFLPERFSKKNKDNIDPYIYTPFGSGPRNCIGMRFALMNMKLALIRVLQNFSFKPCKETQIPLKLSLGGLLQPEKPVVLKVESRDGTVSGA
Sequence of CYP2C9 (P11712 whole entry): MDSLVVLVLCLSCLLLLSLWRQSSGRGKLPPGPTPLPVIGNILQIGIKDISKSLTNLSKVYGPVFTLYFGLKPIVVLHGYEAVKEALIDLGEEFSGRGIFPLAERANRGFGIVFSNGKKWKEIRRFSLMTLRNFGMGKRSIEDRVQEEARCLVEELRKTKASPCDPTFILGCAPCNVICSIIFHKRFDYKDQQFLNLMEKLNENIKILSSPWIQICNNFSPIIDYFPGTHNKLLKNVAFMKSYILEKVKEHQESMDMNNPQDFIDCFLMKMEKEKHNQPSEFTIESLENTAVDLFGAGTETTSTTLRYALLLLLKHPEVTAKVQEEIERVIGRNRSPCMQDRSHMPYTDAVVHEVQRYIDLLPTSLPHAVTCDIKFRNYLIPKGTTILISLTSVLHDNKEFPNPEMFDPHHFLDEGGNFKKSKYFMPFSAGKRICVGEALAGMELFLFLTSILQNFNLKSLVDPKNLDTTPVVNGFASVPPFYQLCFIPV
Sequence of Recombinant Human Ketohexokinase (KHK) (P50053 whole entry): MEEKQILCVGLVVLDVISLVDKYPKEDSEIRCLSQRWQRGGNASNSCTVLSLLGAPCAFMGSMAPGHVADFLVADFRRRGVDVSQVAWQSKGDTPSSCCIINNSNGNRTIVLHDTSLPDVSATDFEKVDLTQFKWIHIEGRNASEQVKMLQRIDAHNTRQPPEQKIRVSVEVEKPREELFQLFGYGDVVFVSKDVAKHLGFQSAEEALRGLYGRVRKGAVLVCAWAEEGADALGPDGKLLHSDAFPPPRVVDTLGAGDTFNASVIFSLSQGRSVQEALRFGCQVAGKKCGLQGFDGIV
Sequence of CYP2C19 (P33261 whole entry): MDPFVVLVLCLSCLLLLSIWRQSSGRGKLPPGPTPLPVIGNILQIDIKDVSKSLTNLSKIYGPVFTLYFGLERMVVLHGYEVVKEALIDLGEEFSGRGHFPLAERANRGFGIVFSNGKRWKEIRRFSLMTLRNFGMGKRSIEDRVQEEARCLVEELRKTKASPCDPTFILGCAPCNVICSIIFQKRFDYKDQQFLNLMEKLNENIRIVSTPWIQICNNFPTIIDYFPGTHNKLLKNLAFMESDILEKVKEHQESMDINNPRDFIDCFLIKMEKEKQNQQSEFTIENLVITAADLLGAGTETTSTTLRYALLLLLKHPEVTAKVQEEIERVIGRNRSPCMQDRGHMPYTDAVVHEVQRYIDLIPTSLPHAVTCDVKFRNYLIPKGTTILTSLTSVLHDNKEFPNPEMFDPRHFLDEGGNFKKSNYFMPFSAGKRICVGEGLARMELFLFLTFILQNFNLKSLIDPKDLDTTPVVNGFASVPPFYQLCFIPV
Sequence of CYP1A2 (P05177 whole entry): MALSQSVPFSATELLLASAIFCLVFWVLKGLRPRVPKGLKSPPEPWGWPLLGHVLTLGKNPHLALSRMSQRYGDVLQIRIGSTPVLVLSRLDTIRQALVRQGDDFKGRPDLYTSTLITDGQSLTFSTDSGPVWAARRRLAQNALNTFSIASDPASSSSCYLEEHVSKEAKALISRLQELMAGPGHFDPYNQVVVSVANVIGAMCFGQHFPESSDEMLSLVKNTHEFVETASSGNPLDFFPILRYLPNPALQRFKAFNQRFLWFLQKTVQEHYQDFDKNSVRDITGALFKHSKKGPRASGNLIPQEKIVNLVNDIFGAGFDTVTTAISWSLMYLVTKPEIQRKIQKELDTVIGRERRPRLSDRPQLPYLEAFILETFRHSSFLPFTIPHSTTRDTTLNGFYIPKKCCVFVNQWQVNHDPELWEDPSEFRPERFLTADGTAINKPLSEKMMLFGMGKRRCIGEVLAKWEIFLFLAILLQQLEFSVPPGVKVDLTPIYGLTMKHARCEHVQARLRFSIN

Regarding `C[C@H]1CCN1c1nc(N2C[C@@H]3[C@@H](CC(=O)O)[C@@H]3C2)c2ccsc2n1` [WX004], the IC50 (usually the concentration at which inhibition is half-maximal) against CYP3A4 is more than 50 µM; on CYP2C19, more than 50 µM; against CYP2C9, more than 50 µM; on CYP2D6 it was more than 50 µM; on CYP1A2 it was more than 50 µM; in data set [1], 0.049 µM. The clearance (in general, a measure of how efficiently the substance is removed, as volume per time) in data set [2] (1 mg/kg, IV 1 mpk, read-out: Clearance rate) is 1.21 mL/min/kg. Also, the bioavailability (as a rule, the share of a dose that reaches the circulation, judged against a reference dose that is usually intravenous) in data set [2] (3 mg/kg, IV 1 mpk, PO 3 mpk, read-out: Bioavailability F) was found to be 80%. The AUC in data set [2] (3 mg/kg, PO 3 mpk, read-out: Integral concentration AUC for PO) came to 64.5 µM·h. The half-life in data set [2] (IV 1 mpk and PO 3 mpk study, read-out: Half-life T1/2 (converted)) is 2.96 h.
